Activity calls are given as the source filed them. The rule behind the calls is not given here.
Tests used:
PANC-1 [1] = experiment: Cytotoxicity against human PANC1 cells in nutrient-deprived condition assessed as cell death at 6.25 uM after 24 hrs by WST-8 assay; format: functional
PANC-1 [2] = experiment: Induction of apoptosis in human PANC1 cells in nutrient-deprived condition assessed as morphological changes at 3.125 to 12.5 uM up to 24 hrs by microscopy; format: functional, cell-based
PANC-1 [3] = experiment: Cytotoxicity against human PANC1 cells in nutrient-deprived condition assessed as cell death at 100 uM after 24 hrs by WST-8 assay; format: functional
PANC-1 [4] = experiment: Cytotoxicity against human PANC1 cells in nutrient-deprived condition assessed as cell death at 200 uM after 24 hrs by WST-8 assay; format: functional
PANC-1 [5] = experiment: Cytotoxicity against human PANC1 cells in nutrient-deprived condition at 0.01 ug/mL after 24 hrs by WST-8 assay; format: functional, cell-based

SMILES	Activity (PANC-1 [3])	other results
CC(C)=CCC/C(C)=C/CC/C(C)=C/CC/C(C)=C/COc1ccc2ccc(=O)oc2c1	Active	Activity (PANC-1 [1]): 100%; Activity (PANC-1 [2]): Active
O=c1ccc2ccc(OC3CCCC3)cc2o1	–	Activity (PANC-1 [4]): 100%
CC(C)=CCC/C(C)=C/CC/C(C)=C/COc1cc2ccccc2oc1=O	Active	–
CC(C)(OC(=O)/C=C/c1ccc(O)cc1)[C@@H]1Cc2c(ccc3ccc(=O)oc23)O1	–	Activity (PANC-1 [5]): Active
CC(C)=CCOc1ccc2ccc(=O)oc2c1 [7-PRENYLOXYCOUMARIN]	100%	–
CC(C)=CCC/C(C)=C/COc1ccc2ccc(=O)oc2c1	Active	–

From ChEMBL document CHEMBL1833838, “Pancreatic anticancer activity of a novel geranylgeranylated coumarin derivative” (2011)
